# Data published in patent publication US20230146455A1, “TREATMENT OF INFLAMMATORY DISEASES WITH PEPTIDES AND PHARMACEUTICAL COMPOSITIONS” (Yuyu Pharma, Inc., priority 2020, published 2023).
# Values joined by “and” are separate entries in the source; they are usually repeats but may differ in a detail not shown here. Equal entries are not always repeated. Where a SMILES comes first, the peptide text is derived from it. [ ]: non-standard residue; d: D form. Hyp = O=C(O)[C@@H]1C[C@@H](O)CN1
# Tested on: human PBMCs
# Test: PBMC cell counts (total, live, viability; trypan blue, Countess) with and without LPS and test articles (Example 9)
# Assay type: cell-based
# Protocol: Treatment Human PBMCs were pretreated with YY-101, YDE-011 and YDE-043 or reference compound; Xiidra® at various concentration (ranging from 1 nM to 100 uM) for 2 h before stimulation. An equal volume of 0.5% DMSO was used as a vehicle control. Then, the cells were treated with LPS at 5 ug/ml. The supernatants from treated cells were harvested at 24 h and placed in a 96 well for Luminex cytokine & chemokine profiling using a Luminex 200 multiplex assay (Luminex; R&D system, USA).
# The main study arm with triplicate wells per group in a 24-well plate: • 1. Blank • 2. PBMC: 0.5% DMSO • 3. PBMC+LPS (5 ug/ml) • 4. PBMC+YY-101 100 uM • 5. PBMC+YY-101 10 uM • 6. PBMC+YY-101 1 uM • 7. PBMC+YY-101 0.1 uM • 8. PBMC+YY-101 0.01 uM • 9. PBMC+LPS (5 ug/ml)+Xiidra®100 uM • 10. PBMC+LPS (5 ug/ml)+Xiidra® 10 uM • 11. PBMC+LPS (5 ug/ml)+Xiidra® 1 uM • 12. PBMC+LPS (5 ug/ml)+Xiidra®0.1 uM • 13. PBMC+LPS (5 ug/ml)+Xiidra®0.01 uM • 14. PBMC+LPS (5 ug/ml)+Xiidra®0.001 uM • 15. PBMC+LPS (5 ug/ml)+YY-101 100 uM • 16. PBMC+LPS (5 ug/ml)+YY-101 10 uM • 17. PBMC+LPS (5 ug/ml)+YY-101 1 uM • 18. PBMC+LPS (5 ug/ml)+YY-101 0.1 uM • 19. PBMC+LPS (5 ug/ml)+YY-101 0.01 uM • 20. PBMC+LPS (5 ug/ml)+YY-101 0.001 uM • 21. PBMC+LPS (5 ug/ml)+YDE-011 100 uM • 22. PBMC+LPS (5 ug/ml)+YDE-011 10 uM • 23. PBMC+LPS (5 ug/ml)+YDE-011 1 uM • 24. PBMC+LPS (5 ug/ml)+YDE-011 0.1 uM • 25. PBMC+LPS (5 ug/ml)+YDE-011 0.01 uM • 26. PBMC+LPS (5 ug/ml)+YDE-011 0.001 uM • 27. PBMC+LPS (5 ug/ml)+YDE-043 100 uM • 28. PBMC+LPS (5 ug/ml)+YDE-043 10 uM • 29. PBMC+LPS (5 ug/ml)+YDE-043 1 uM • 30. PBMC+LPS (5 ug/ml)+YDE-043 0.1 uM • 31. PBMC+LPS (5 ug/ml)+YDE-043 0.01 uM • 32. PBMC+LPS (5 ug/ml)+YDE-043 0.001 uM
# The number of PBMCs was measured after 24 hr of treatment. The culture both and trypan blue were diluted 1:1 and 10 ul was added to Countess cell counting chamber (Thermo fisher, USA). The number of PBMCs was measured using a Countess automated cell counter (Thermo fisher, USA).
# [1] = PBMC + LPS(5 ug/ml) + compound 0.001 uM, 24 hr
# [2] = PBMC + LPS(5 ug/ml) + compound 0.01 uM, 24 hr
# [3] = PBMC + LPS(5 ug/ml) + compound 0.1 uM, 24 hr
# [4] = PBMC + LPS(5 ug/ml) + compound 1 uM, 24 hr
# [5] = PBMC + LPS(5 ug/ml) + compound 10 uM, 24 hr
# [6] = PBMC + LPS(5 ug/ml) + compound 100 uM, 24 hr
# [7] = PBMC + LPS(5 ug/ml) + test article 0.001 uM, Mean
# [8] = PBMC + LPS(5 ug/ml) + test article 0.001 uM, single replicates
# [9] = PBMC + LPS(5 ug/ml) + test article 0.01 uM, Mean
# [10] = PBMC + LPS(5 ug/ml) + test article 0.01 uM, single replicates
# [11] = PBMC + LPS(5 ug/ml) + test article 0.1 uM, Mean
# [12] = PBMC + LPS(5 ug/ml) + test article 0.1 uM, single replicates
# [13] = PBMC + LPS(5 ug/ml) + test article 1 uM, Mean
# [14] = PBMC + LPS(5 ug/ml) + test article 1 uM, single replicates
# [15] = PBMC + LPS(5 ug/ml) + test article 10 uM, Mean
# [16] = PBMC + LPS(5 ug/ml) + test article 10 uM, single replicates
smiles,measurement,setting,value
CC(C)C[C@H](NC(=O)[C@H](CCC(N)=O)NC(=O)CNC(=O)[C@@H]1C[C@@H](O)CN1)C(=O)NCC(=O)O [YDE-043] (H-[Hyp]GQLG-OH; N-terminus and C-terminus assumed),Live cell,[1],5.0 ± 0.5 10^5/ml
same,Total cell,[1],6.3 ± 0.7 10^5/ml
same,Live cell,[2],5.4 ± 0.6 10^5/ml
same,Total cell,[2],6.9 ± 0.4 10^5/ml
same,Live cell,[3],5.4 ± 0.2 10^5/ml
same,Total cell,[3],6.6 ± 0.1 10^5/ml
same,Live cell,[4],5.3 ± 0.3 10^5/ml
same,Total cell,[4],6.8 ± 0.6 10^5/ml
same,Live cell,[5],5.4 ± 0.1 10^5/ml
same,Total cell,[5],6.4 ± 0.1 10^5/ml
same,Live cell,[6],6.3 ± 0.1 10^5/ml
same,Total cell,[6],7.6 ± 0.6 10^5/ml
same,Live cell,[7],5.0 10^5/ml
same,Live cell (10^5/ml),[7],5.0 10^5/ml
same,"Live cell, Mean",[7],5.0 10^5/ml
same,Live cell,"PBMC + LPS(5 ug/ml) + test article 0.001 uM, individual replicates",4.4 10^5/ml and 6.0 10^5/ml and 4.6 10^5/ml
same,Live cell,"PBMC + LPS(5 ug/ml) + test article 0.001 uM, individual replicates (1st, 2nd, 3rd)",4.4 10^5/ml and 6.0 10^5/ml and 4.6 10^5/ml
same,Live cell,[8],4.4 10^5/ml and 6.0 10^5/ml and 4.6 10^5/ml
same,Live cell (10^5/ml),[8],4.4 10^5/ml and 6.0 10^5/ml and 4.6 10^5/ml
same,Live cell,"PBMC + LPS(5 ug/ml) + test article 0.001 uM, single replicates (1st, 2nd, 3rd)",4.4 10^5/ml and 6.0 10^5/ml and 4.6 10^5/ml
same,Live cell,[9],5.4 10^5/ml
same,Live cell (10^5/ml),[9],5.4 10^5/ml
same,"Live cell, Mean",[9],5.4 10^5/ml
same,Live cell,"PBMC + LPS(5 ug/ml) + test article 0.01 uM, individual replicates",4.5 10^5/ml and 6.6 10^5/ml and 5.0 10^5/ml
same,Live cell,"PBMC + LPS(5 ug/ml) + test article 0.01 uM, individual replicates (1st, 2nd, 3rd)",4.5 10^5/ml and 6.6 10^5/ml and 5.0 10^5/ml
same,Live cell,[10],4.5 10^5/ml and 6.6 10^5/ml and 5.0 10^5/ml
same,Live cell (10^5/ml),[10],4.5 10^5/ml and 6.6 10^5/ml and 5.0 10^5/ml
same,Live cell,"PBMC + LPS(5 ug/ml) + test article 0.01 uM, single replicates (1st, 2nd, 3rd)",4.5 10^5/ml and 6.6 10^5/ml and 5.0 10^5/ml
same,Live cell,[11],5.4 10^5/ml
same,Live cell (10^5/ml),[11],5.4 10^5/ml
same,"Live cell, Mean",[11],5.4 10^5/ml
same,Live cell,"PBMC + LPS(5 ug/ml) + test article 0.1 uM, individual replicates",5.0 10^5/ml and 5.6 10^5/ml (2×)
same,Live cell,"PBMC + LPS(5 ug/ml) + test article 0.1 uM, individual replicates (1st, 2nd, 3rd)",5.0 10^5/ml and 5.6 10^5/ml (2×)
same,Live cell,[12],5.0 10^5/ml and 5.6 10^5/ml (2×)
same,Live cell (10^5/ml),[12],5.0 10^5/ml and 5.6 10^5/ml (2×)
same,Live cell,"PBMC + LPS(5 ug/ml) + test article 0.1 uM, single replicates (1st, 2nd, 3rd)",5.0 10^5/ml and 5.6 10^5/ml (2×)
same,Live cell,[13],5.3 10^5/ml
same,Live cell (10^5/ml),[13],5.3 10^5/ml
same,"Live cell, Mean",[13],5.3 10^5/ml
same,Live cell,"PBMC + LPS(5 ug/ml) + test article 1 uM, individual replicates",5.8 10^5/ml and 4.8 10^5/ml and 5.3 10^5/ml
same,Live cell,"PBMC + LPS(5 ug/ml) + test article 1 uM, individual replicates (1st, 2nd, 3rd)",5.8 10^5/ml and 4.8 10^5/ml and 5.3 10^5/ml
same,Live cell,[14],5.8 10^5/ml and 4.8 10^5/ml and 5.3 10^5/ml
same,Live cell (10^5/ml),[14],5.8 10^5/ml and 4.8 10^5/ml and 5.3 10^5/ml
same,Live cell,"PBMC + LPS(5 ug/ml) + test article 1 uM, single replicates (1st, 2nd, 3rd)",5.8 10^5/ml and 4.8 10^5/ml and 5.3 10^5/ml
same,Live cell,[15],5.4 10^5/ml
same,Live cell (10^5/ml),[15],5.4 10^5/ml
same,"Live cell, Mean",[15],5.4 10^5/ml
same,Live cell,"PBMC + LPS(5 ug/ml) + test article 10 uM, individual replicates",5.2 10^5/ml and 5.4 10^5/ml and 5.6 10^5/ml
same,Live cell,"PBMC + LPS(5 ug/ml) + test article 10 uM, individual replicates (1st, 2nd, 3rd)",5.2 10^5/ml and 5.4 10^5/ml and 5.6 10^5/ml
same,Live cell,[16],5.2 10^5/ml and 5.4 10^5/ml and 5.6 10^5/ml
same,Live cell (10^5/ml),[16],5.2 10^5/ml and 5.4 10^5/ml and 5.6 10^5/ml
